In ChEMBL document CHEMBL1201862, “PubChem BioAssay data set” (2004):
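A five-concentration, 48-hour dose response in 96-well plates underlies each endpoint, interpolated linearly between surrounding concentrations. GI50: concentration for 50% inhibition of growth.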 Active and inactive are the calls of the source. Rule as the data show it: active = GI50 up to about 1.1 µM and inactive = higher.

Key:
Test in all cases: DTP human tumour cell line panel, 48 h
OVCAR-5 = system: OVCAR-5
NCI-H23 = system: NCI-H23
HL-60 = system: HL-60
RPMI-8226 = system: RPMI-8226
HCC 2998 = system: HCC 2998
CAKI-1 = system: CAKI-1
ACHN = system: ACHN
IGROV-1 = system: IGROV-1
SF-295 = system: SF-295
CCRF-CEM = system: CCRF-CEM
PC-3 = system: PC-3
NCI-H522 = system: NCI-H522
M14 = system: M14
SK-OV-3 = system: SK-OV-3
MDA-MB-435 = system: MDA-MB-435
TK-10 = system: TK-10
MDA-N = system: MDA-N
NCI-H460 = system: NCI-H460
SNB-75 = system: SNB-75
BT-549 = system: BT-549

| SMILES | GI50 (OVCAR-5) | GI50 (NCI-H23) | GI50 (HL-60) | GI50 (RPMI-8226) | GI50 (HCC 2998) | GI50 (CAKI-1) | GI50 (ACHN) | GI50 (IGROV-1) | GI50 (SF-295) | GI50 (CCRF-CEM) | GI50 (PC-3) | GI50 (NCI-H522) | GI50 (M14) | GI50 (SK-OV-3) | GI50 (MDA-MB-435) | GI50 (TK-10) | GI50 (MDA-N) | GI50 (NCI-H460) | GI50 (SNB-75) | GI50 (BT-549) |
| --- | --- | --- | --- | --- | --- | --- | --- | --- | --- | --- | --- | --- | --- | --- | --- | --- | --- | --- | --- | --- |
| Cc1ccc(SCC(CF)OCn2cc(F)c(=O)[nH]c2=O)cc1 (stereo not drawn) | > 100 µM (inactive) | > 100 µM (inactive) | 76.9 µM (inactive) | > 100 µM (inactive) | > 100 µM (inactive) | > 100 µM (inactive) | > 100 µM (inactive) | > 100 µM (inactive) | > 100 µM (inactive) | 55.2 µM (inactive) | > 100 µM (inactive) | > 100 µM (inactive) | > 100 µM (inactive) | > 100 µM (inactive) | > 100 µM (inactive) | > 100 µM (inactive) | > 100 µM (inactive) | > 100 µM (inactive) | – | – |
| CN(C)c1ccc(/C=C/c2ccnc3ccccc23)cc1N | 13.7 µM (inactive) | 5.68 µM (inactive) | 3.52 µM (inactive) | 2.52 µM (inactive) | 10.1 µM (inactive) | – | 10.3 µM (inactive) | – | 11 µM (inactive) | 3 µM (inactive) | 4.35 µM (inactive) | – | 10.6 µM (inactive) | 15.2 µM (inactive) | 2.55 µM (inactive) | 5.16 µM (inactive) | 3.1 µM (inactive) | 8.24 µM (inactive) | 6.5 µM (inactive) | – |
| O=C1N(c2ccccc2)N=C2c3ccncc3C3=NN(c4ccccc4)C(=O)C123 (stereo not drawn) | > 65.2 µM (inactive) | > 70 µM (inactive) | 0.619 µM (active) | – | 6.68 µM (inactive) | – | > 43.6 µM (inactive) | > 51.9 µM (inactive) | 4.37 µM (inactive) | > 40.9 µM (inactive) | 2.43 µM (inactive) | > 100 µM (inactive) | – | > 100 µM (inactive) | 4.36 µM (inactive) | > 100 µM (inactive) | – | 5.32 µM (inactive) | > 100 µM (inactive) | > 48.4 µM (inactive) |
| NC(Cc1c2ccccc2cc2ccccc12)C(=O)O (stereo not drawn) | > 100 µM (inactive) | > 100 µM (inactive) | > 100 µM (inactive) | – | > 100 µM (inactive) | 62.2 µM (inactive) | 83 µM (inactive) | 48.3 µM (inactive) | > 100 µM (inactive) | 94.8 µM (inactive) | > 100 µM (inactive) | > 100 µM (inactive) | > 100 µM (inactive) | > 100 µM (inactive) | > 100 µM (inactive) | > 100 µM (inactive) | – | 59.8 µM (inactive) | 14 µM (inactive) | – |
| N/N=C1/C(=N/O)CCc2nonc21 | > 100 µM (inactive) | > 100 µM (inactive) | > 100 µM (inactive) | > 100 µM (inactive) | > 100 µM (inactive) | > 100 µM (inactive) | > 100 µM (inactive) | > 100 µM (inactive) | > 100 µM (inactive) | > 100 µM (inactive) | > 100 µM (inactive) | – | > 100 µM (inactive) | > 100 µM (inactive) | > 100 µM (inactive) | > 100 µM (inactive) | > 100 µM (inactive) | > 100 µM (inactive) | > 100 µM (inactive) | – |
| O/N=C1/CCCCC1NO (stereo not drawn) | > 100 µM (inactive) | > 100 µM (inactive) | > 100 µM (inactive) | > 100 µM (inactive) | > 100 µM (inactive) | > 100 µM (inactive) | > 100 µM (inactive) | > 100 µM (inactive) | > 100 µM (inactive) | > 100 µM (inactive) | > 100 µM (inactive) | – | > 100 µM (inactive) | > 100 µM (inactive) | > 100 µM (inactive) | > 100 µM (inactive) | > 100 µM (inactive) | > 100 µM (inactive) | > 100 µM (inactive) | – |
| NC1NCCC(=O)N1CCc1c[nH]c2ccccc12 (stereo not drawn) | 23.6 µM (inactive) | 18.7 µM (inactive) | 24.8 µM (inactive) | 37.2 µM (inactive) | 18.5 µM (inactive) | 29.2 µM (inactive) | 24.6 µM (inactive) | 25.4 µM (inactive) | 24.5 µM (inactive) | 23.6 µM (inactive) | 19.3 µM (inactive) | 87.5 µM (inactive) | 19.2 µM (inactive) | > 100 µM (inactive) | 17 µM (inactive) | 25.9 µM (inactive) | 17.6 µM (inactive) | 16.8 µM (inactive) | 6.98 µM (inactive) | – |
| O/N=C1/CCC/C1=C\c1ccccc1 | 67.5 µM (inactive) | > 100 µM (inactive) | 28.6 µM (inactive) | > 100 µM (inactive) | > 100 µM (inactive) | > 100 µM (inactive) | > 100 µM (inactive) | > 100 µM (inactive) | > 100 µM (inactive) | > 100 µM (inactive) | – | 31 µM (inactive) | > 100 µM (inactive) | > 100 µM (inactive) | – | > 100 µM (inactive) | – | > 100 µM (inactive) | 18.5 µM (inactive) | – |
| CC(=O)OC(COc1ccc2c(c1)[n+]([O-])nc(N)[n+]2[O-])CN1CCCCC1 (stereo not drawn) | 20.8 µM (inactive) | 12.4 µM (inactive) | 5.12 µM (inactive) | 5.58 µM (inactive) | 8.71 µM (inactive) | 17.4 µM (inactive) | 6.79 µM (inactive) | – | – | 6.1 µM (inactive) | 1.52 µM (inactive) | 11.1 µM (inactive) | 16.2 µM (inactive) | – | 36 µM (inactive) | 23.5 µM (inactive) | – | 3.97 µM (inactive) | 18.2 µM (inactive) | 24.5 µM (inactive) |
| COC(=O)c1c2c(cc3c1CC1(C3)Cc3cc4c(c(C(=O)OC)c3C1)CCCC4)CCCC2 | > 100 µM (inactive) | > 100 µM (inactive) | 24.2 µM (inactive) | 49.8 µM (inactive) | > 100 µM (inactive) | – | > 100 µM (inactive) | > 100 µM (inactive) | > 100 µM (inactive) | 30.5 µM (inactive) | 3.94 µM (inactive) | > 100 µM (inactive) | > 100 µM (inactive) | > 100 µM (inactive) | > 100 µM (inactive) | > 100 µM (inactive) | > 100 µM (inactive) | – | – | – |
| O=[N+]([O-])c1ccccc1/C=N/C12CC3CC(CC(C3)C1)C2 | > 100 µM (inactive) | > 100 µM (inactive) | 21.4 µM (inactive) | 34 µM (inactive) | 38.1 µM (inactive) | 49.5 µM (inactive) | > 100 µM (inactive) | > 100 µM (inactive) | > 100 µM (inactive) | 30.9 µM (inactive) | – | > 100 µM (inactive) | 56.1 µM (inactive) | > 100 µM (inactive) | – | > 100 µM (inactive) | – | > 100 µM (inactive) | 65 µM (inactive) | – |
| O=C(CCl)N1CCN(c2ccccn2)CC1 | 20.7 µM (inactive) | 19.8 µM (inactive) | 24.3 µM (inactive) | 31.8 µM (inactive) | 19.4 µM (inactive) | 19.3 µM (inactive) | 31.6 µM (inactive) | 21.3 µM (inactive) | > 10 µM (inactive) | 19.9 µM (inactive) | > 100 µM (inactive) | – | 16.6 µM (inactive) | 46.7 µM (inactive) | – | 19.5 µM (inactive) | 25.2 µM (inactive) | 19.3 µM (inactive) | > 10 µM (inactive) | – |
